Measurements published in ChEMBL document CHEMBL1138686, “Discovery of potent antagonists of the antiapoptotic protein XIAP for the treatment of cancer” (J Med Chem, 2004).
Values joined by “and” are separate entries in the source; they are usually repeats but may differ in a detail not shown here. Equal entries are not always repeated. Numbered stars: 1 amine (or outer) side, 2 acyl side, 3 side chain; on linkers, the order of the positions; unused ones are H or OH. Square brackets hold non-standard residues; d marks the D form. Peptide text beside a SMILES is read from it. ξ: configuration not given here. Phe(4-Cl) = N[C@@H](Cc1ccc(Cl)cc1)C(=O)O; 1Nal = N[C@@H](Cc1cccc2ccccc12)C(=O)O; 2Nal = N[C@@H](Cc1ccc2ccccc2c1)C(=O)O; X1 = O=C([C@@H]1CC(O)CN1[*:1])[*:2]; hPhe = N[C@@H](CCc1ccccc1)C(=O)O; Phg = N[C@H](C(=O)O)c1ccccc1; Tle = CC(C)(C)[C@H](N)C(=O)O; Nle = CCCC[C@H](N)C(=O)O; ξPip = O=C(O)C1CCCCN1; Aib = CC(C)(N)C(=O)O; ξNMeA = CNC(C)C(=O)O; ξAze = O=C(O)C1CCN1; Sar = CNCC(=O)O

Key:
[1] = The compound was tested for toxicity against human breast cancer cell line MDA-MB-231; assay type: functional, cell-based; details: cancer cell lines
SK-MEL-5 = assay: cells; details: Homo sapiens
Description: The compound was tested for toxicity against human melanoma cancer cell line SK-MEL-5

HL-60 = assay: cells; details: Homo sapiens
Description: The compound was tested for toxicity against human leukemia cancer cell line HL-60

[2] = The compound was tested for toxicity against human NSCL cancer cell line NCI-H23; assay type: functional, cell-based; details: cancer cell lines
[3] = The compound was tested for toxicity against human renal cancer cell line RXF-393; assay type: functional, cell-based; details: cancer cell lines
[4] = The compound was tested for toxicity against human NSCL cancer cell line NCI-H522; assay type: functional, cell-based; details: cancer cell lines
[5] = The compound was tested for toxicity against human breast cancer cell line BT-549; assay type: functional, cell-based; details: cancer cell lines
[6] = The compound was tested for toxicity against human ovarian cancer cell line SK-OV-3; assay type: functional, cell-based; details: cancer cell lines
[7] = target: T1, E3 ubiquitin-protein ligase XIAP (Homo sapiens, UniProt P98170); assay: Binding affinity to the BIR3 domain of X-linked IAP
[8] = target: T1, E3 ubiquitin-protein ligase XIAP; assay: Relief of caspase inhibition in reconstituted assay (APAF-1, caspase-9, procaspase-3) with BIR3 domain of XIAP
[9] = target: T1, E3 ubiquitin-protein ligase XIAP; assay: Relief of caspase inhibition in reconstituted assay (APAF-1, caspase-9, procaspase-3) with XIAP

T1 sequence (P98170 whole entry, the tested form may be a part): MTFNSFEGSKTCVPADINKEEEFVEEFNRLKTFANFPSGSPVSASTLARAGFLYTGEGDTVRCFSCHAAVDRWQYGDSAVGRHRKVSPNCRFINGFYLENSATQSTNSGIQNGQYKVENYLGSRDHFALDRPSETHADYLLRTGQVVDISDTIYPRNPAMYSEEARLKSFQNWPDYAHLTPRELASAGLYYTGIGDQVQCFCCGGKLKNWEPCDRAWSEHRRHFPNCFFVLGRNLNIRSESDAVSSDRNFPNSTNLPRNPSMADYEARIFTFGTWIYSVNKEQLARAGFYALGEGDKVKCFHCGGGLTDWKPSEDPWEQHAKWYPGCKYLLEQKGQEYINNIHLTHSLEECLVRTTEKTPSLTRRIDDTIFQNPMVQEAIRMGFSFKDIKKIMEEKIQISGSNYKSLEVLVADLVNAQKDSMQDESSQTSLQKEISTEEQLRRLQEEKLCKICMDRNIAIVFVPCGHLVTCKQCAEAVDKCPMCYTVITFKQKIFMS

Molecule	Kd [7]	other results
CN[C@@H](C)C(=O)N[C@H](C(=O)N1CCC[C@H]1C(=O)N[C@@H]1CCCc2ccccc21)C(C)(C)C		EC50 [1]: 60 nM; EC50 (SK-MEL-5): 1300 nM; EC50 (HL-60): 990 nM; EC50 [2]: 5300 nM; EC50 [3]: 810 nM; EC50 [4]: 1700 nM; EC50 [5]: 10 nM; EC50 [6]: 1500 nM
CC(C)[C@@H](NC(=O)[C@H](C)N)C(=O)N1CCC[C@H]1C(=O)N[C@@H](Cc1ccccc1)C(=O)N[C@@H](Cc1ccc(O)cc1)C(=O)O	90 nM and 120 nM	
CN[C@@H](C)C(=O)N[C@H](C(=O)N1CCC[C@H]1C(=O)N[C@H]1CCCc2ccccc21)C(C)(C)C		EC50 [1]: 3000 nM; EC50 [6]: 5600 nM
C[C@@H](C(=O)N[C@H](C(=O)N1CCC[C@H]1C(=O)N[C@@H]1CCCc2ccccc21)C1CCCCC1)N(C)C		EC50 [1]: 3400 nM; EC50 (SK-MEL-5): 15000 nM; EC50 (HL-60): 4300 nM; EC50 [2]: > 50000 nM; EC50 [3]: > 50000 nM; EC50 [4]: > 50000 nM; EC50 [5]: 1000 nM; EC50 [6]: > 25000 nM
CN[C@@H](C)C(=O)N[C@H](C(=O)N1CCC[C@H]1C(=O)N[C@@H]1CCCc2ccccc21)C1CCCCC1		EC50 [1]: 10 nM; EC50 (SK-MEL-5): 290 nM; EC50 (HL-60): 190 nM; EC50 [2]: 1500 nM; EC50 [3]: 1100 nM; EC50 [4]: 2000 nM; EC50 [5]: 7 nM; EC50 [6]: 1300 nM
CN[C@@H](C)C(=O)N[C@H](C(=O)N1CCC[C@H]1C(=O)NC1c2ccccc2-c2ccccc21)C(C)(C)C	40 nM	
CN[C@@H](C)C(=O)N[C@H](C(=O)N1CCC[C@H]1C(=O)N[C@@H]1CCc2ccccc21)C(C)(C)C	20 nM	
CC(C)[C@@H](C(=O)N1CCC[C@H]1C(=O)N[C@@H](Cc1ccccc1)C(=O)N[C@@H](Cc1ccc(O)cc1)C(=O)O)N(C)C	8700 nM	
CC(C)C[C@@H](NC(=O)[C@H](C)N)C(=O)N1CCC[C@H]1C(=O)N[C@@H](Cc1ccccc1)C(=O)N[C@@H](Cc1ccc(O)cc1)C(=O)O	160 nM	
CC(C)[C@H](NC(=O)[C@H](C)N)C(=O)N1CCC[C@H]1C(=O)N[C@@H](Cc1cccc2ccccc12)C(=O)N[C@@H](Cc1ccc(O)cc1)C(=O)O (H-AVP[1Nal]Y-OH)	90 nM	
CC(C)[C@H](NC(=O)[C@H](C)N)C(=O)N1CCC[C@H]1C(=O)NC(C)(C)C(=O)N[C@@H](Cc1ccc(O)cc1)C(=O)O (H-AVP[Aib]Y-OH)	6700 nM	
CCCC[C@H](NC(=O)[C@@H]1CCCN1C(=O)[C@@H](NC(=O)[C@H](C)N)C(C)C)C(=O)N[C@@H](Cc1ccc(O)cc1)C(=O)O (H-AVP[Nle]Y-OH)	900 nM	
CC(C)[C@H](NC(=O)[C@H](C)N)C(=O)N1CCC[C@H]1C(=O)N[C@@H](Cc1ccc(Cl)cc1)C(=O)N[C@@H](Cc1ccc(O)cc1)C(=O)O (H-AVP[Phe(4-Cl)]Y-OH)	180 nM	
CC(C)[C@H](NC(=O)[C@H](C)N)C(=O)N1CCC[C@H]1C(=O)N[C@H](C(=O)N[C@@H](Cc1ccc(O)cc1)C(=O)O)c1ccccc1 (H-AVP[Phg]Y-OH)	30 nM	
CC(C)[C@H](NC(=O)[C@H](C)N)C(=O)N1CC(O)C[C@H]1C(=O)N[C@@H](Cc1ccccc1)C(=O)N[C@@H](Cc1ccc(O)cc1)C(=O)O (some centres not stated) (H-AV[X1]FY-OH)	800 nM	
CC(C)[C@H](NC(=O)[C@H](C)N)C(=O)N1CCC1C(=O)N[C@@H](Cc1ccccc1)C(=O)N[C@@H](Cc1ccc(O)cc1)C(=O)O (some centres not stated) (H-AV[ξAze]FY-OH)	120 nM	
CC(C)[C@H](NC(=O)[C@H](C)N)C(=O)N(C)C(C)C(=O)N[C@@H](Cc1ccccc1)C(=O)N[C@@H](Cc1ccc(O)cc1)C(=O)O (some centres not stated) (H-AV[ξNMeA]FY-OH)	1600 nM	
CC(C)[C@H](NC(=O)[C@H](C)N)C(=O)N1CCCCC1C(=O)N[C@@H](Cc1ccccc1)C(=O)N[C@@H](Cc1ccc(O)cc1)C(=O)O (some centres not stated) (H-AV[ξPip]FY-OH)	400 nM	
C[C@H](N)C(=O)NC(C)(C)C(=O)N1CCC[C@H]1C(=O)N[C@@H](Cc1ccccc1)C(=O)N[C@@H](Cc1ccc(O)cc1)C(=O)O (H-A[Aib]PFY-OH)	> 20000 nM	
C[C@H](N)C(=O)N[C@H](C(=O)N1CCC[C@H]1C(=O)N[C@@H](Cc1ccccc1)C(=O)N[C@@H](Cc1ccc(O)cc1)C(=O)O)C(C)(C)C (H-A[Tle]PFY-OH)	40 nM	
CC(C(=O)N1CCC[C@H]1C(=O)N[C@@H](Cc1ccccc1)C(=O)N[C@@H](Cc1ccc(O)cc1)C(=O)O)N(C)C(=O)[C@H](C)N (some centres not stated) (H-A[ξNMeA]PFY-OH)	> 20000 nM	
CNC(C)C(=O)N[C@H](C(=O)N1CCC[C@H]1C(=O)N[C@@H]1CCCc2ccccc21)C(C)(C)C (single isomer, unassigned)		EC50 [1]: 8300 nM; EC50 [6]: > 50000 nM
H-AGPFY-OH	2700 nM	
H-AVGFY-OH	3000 nM	
H-AVPFG-OH	3400 nM	
H-AVPLY-OH	280 nM	
H-GVPFY-OH	9600 nM	

Continued, in another order:

Kd [7]	Molecule	other results
> 1000 nM	CC(C(=O)N[C@H](C(=O)N1C[C@@H](Oc2ccccc2)C[C@H]1C(=O)NC1CCCc2ccccc21)C(C)(C)C)N(C)C (some centres not stated)	EC50 [8]: > 100000 nM; EC50 [9]: > 100000 nM
190 nM	CC(C)[C@H](NC(=O)[C@H](C)N)C(=O)N1CCC[C@H]1C(=O)N[C@@H](Cc1ccc2ccccc2c1)C(=O)N[C@@H](Cc1ccc(O)cc1)C(=O)O (H-AVP[2Nal]Y-OH)	
180 nM	CC(C)[C@H](NC(=O)[C@H](C)N)C(=O)N1CCC[C@H]1C(=O)N[C@@H](CCc1ccccc1)C(=O)N[C@@H](Cc1ccc(O)cc1)C(=O)O (H-AVP[hPhe]Y-OH)	
> 20000 nM	CC(C)[C@H](NC(=O)[C@H](C)N)C(=O)NC(C)(C)C(=O)N[C@@H](Cc1ccccc1)C(=O)N[C@@H](Cc1ccc(O)cc1)C(=O)O (H-AV[Aib]FY-OH)	
600 nM	CC(C)[C@H](NC(=O)[C@H](C)N)C(=O)N(C)CC(=O)N[C@@H](Cc1ccccc1)C(=O)N[C@@H](Cc1ccc(O)cc1)C(=O)O (H-AV[Sar]FY-OH)	
> 20000 nM	CC(C)C(NC(=O)[C@H](C)N)C(=O)N1CCC[C@H]1C(=O)N[C@@H](Cc1ccccc1)C(=O)N[C@@H](Cc1ccc(O)cc1)C(=O)O (single isomer, unassigned)	
50 nM	H-AKPFY-OH	
360 nM	H-AVPIY-OH	
300 nM	H-AVPYY-OH	
900 nM	H-VVPFY-OH	
